Laboratory results: US20230183193A1, “4-DIFLUOROMETHYL BENZOYL AMIDES WITH HERBICIDAL ACTION” (BAYER CROPSCIENCE AKTIENGESELLSCHAFT, priority 2017, published 2023)

Key:
Type in all cases: in vivo
[1] = test system: Avena fatua; test: Post-emergence herbicidal action, AVEFA; settings: 80 g/ha, Table C
Method in brief: (§1)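 Greenhouse-grown plants were sprayed at the one-leaf stage, 2–3 weeks after sowing. Damage was scored visually after about 3 weeks against untreated controls, as % action (100% = dead, 0% = like control).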

[2] = test system: Setaria viridis; test: Pre-emergence herbicidal action, SETVI; settings: dosage 320 g/ha, scored visually after 3 weeks vs untreated controls
Method in brief: (§2)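 Weed seeds were laid out in sandy loam and covered with soil, then the soil surface was treated with an aqueous suspension or emulsion of the formulated compound containing 0.2% wetting agent. Pots stayed in the greenhouse for 3 weeks before damage was rated visually against untreated plants.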

[3] = test system: Stellaria media; test: Post-emergence herbicidal action, STEME; settings: 80 g/ha, Table D
Method in brief: as §1

[4] = test system: Matricaria inodora; test: Pre-emergence herbicidal action, MATIN; settings: dosage 320 g/ha, scored visually after 3 weeks vs untreated controls
Method in brief: as §2

[5] = test system: Alopecurus myosuroides; test: Post-emergence herbicidal action, ALOMY; settings: 80 g/ha, Table C
Method in brief: as §1

[6] = test system: Viola tricolor; test: Post-emergence herbicidal action, VIOTR; settings: 80 g/ha, Table D
Method in brief: as §1

[7] = test system: Amaranthus retroflexus; test: Pre-emergence herbicidal action, AMARE; settings: dosage 320 g/ha, scored visually after 3 weeks vs untreated controls
Method in brief: as §2

[8] = test system: Abutilon theophrasti; test: Post-emergence herbicidal action, ABUTH; settings: 80 g/ha, Table D
Method in brief: as §1

[9] = test system: ECHCG; test: Post-emergence herbicidal action, ECHCG; settings: 80 g/ha, Table C
Method in brief: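 Weed and crop plants grown in sandy loam in the greenhouse, treated at the one-leaf stage 2–3 weeks after sowing. Damage scored visually after about 3 weeks vs untreated controls (0% = control, 100% = dead).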

[10] = test system: Pharbitis purpureum; test: Post-emergence herbicidal action, PHBPU; settings: 80 g/ha, Table D
Method in brief: as §1

[11] = test system: Stellaria media; test: Pre-emergence herbicidal action, STEME; settings: dosage 320 g/ha, scored visually after 3 weeks vs untreated controls
Method in brief: as §2

[12] = test system: Cyperus serotinus; test: Pre-emergence herbicidal action, CYPES; settings: dosage 320 g/ha, scored visually after 3 weeks vs untreated controls
Method in brief: as §2

[13] = test system: Setaria viridis; test: Post-emergence herbicidal action, SETVI; settings: 80 g/ha, Table C
Method in brief: as §1

[14] = test system: Abutilon theophrasti; test: Pre-emergence herbicidal action, ABUTH; settings: dosage 320 g/ha, scored visually after 3 weeks vs untreated controls
Method in brief: as §2

[15] = test system: Amaranthus retroflexus; test: Post-emergence herbicidal action, AMARE; settings: 80 g/ha, Table D
Method in brief: as §1

[16] = test system: Viola tricolor; test: Pre-emergence herbicidal action, VIOTR; settings: dosage 320 g/ha, scored visually after 3 weeks vs untreated controls
Method in brief: as §2

[17] = test system: Alopecurus myosuroides; test: Pre-emergence herbicidal action, ALOMY; settings: dosage 320 g/ha, scored visually after 3 weeks vs untreated controls
Method in brief: as §2

[18] = test system: Avena fatua; test: Pre-emergence herbicidal action, AVEFA; settings: dosage 320 g/ha, scored visually after 3 weeks vs untreated controls
Method in brief: as §2

SMILES | herbicidal activity AVEFA [1] [%] | herbicidal activity SETVI [2] [%] | Herbicidal activity STEME [3] [%] | herbicidal activity MATIN [4] [%] | herbicidal activity ALOMY [5] [%] | herbicidal activity VIOTR [6] [%] | herbicidal activity AMARE [7] [%] | herbicidal activity ABUTH [8] [%] | Herbicidal activity ECHCG [9] [%] | Herbicidal activity PHBPU [10] [%] | Herbicidal activity STEME [11] [%] | herbicidal activity CYPES [12] [%] | herbicidal activity SETVI [13] [%] | herbicidal activity ABUTH [14] [%] | herbicidal activity AMARE [15] [%] | herbicidal activity VIOTR [16] [%] | herbicidal activity ALOMY [17] [%] | herbicidal activity AVEFA [18] [%]
Cn1nnnc1NC(=O)c1ccc(C(F)F)c(S(C)(=O)=O)c1F [Example 1-39] | 80 | 100 | 100 | 100 | 90 | 100 | 100 | 90 | 90 | 100 | 100 | 90 | 100 | 100 | 100 | 100 | 90 | 100
CCSc1c(C(F)F)ccc(C(=O)Nc2nnnn2C)c1F [Example 1-40] | 80 | 100 | 90 | 100 | 90 | 90 | 100 | 100 | 100 | 100 | 100 | 100 | 100 | 100 | 100 | 100 | 100 | 90
CC[S+]([O-])c1c(C(F)F)ccc(C(=O)Nc2nnnn2C)c1F (stereo not drawn) [Example 1-41] | 100 | 100 | 100 | 100 | 90 | 100 | 100 | 100 | 90 | 90 | 100 | 100 | 90 | 100 | 100 | 100 | 100 | 100
CCSc1c(C(F)F)ccc(C(=O)Nc2nnnn2C)c1Cl [Example 1-52] | 100 | 100 | 100 | 100 | 100 | 100 | 100 | 100 | 90 | 100 | 100 | 90 | 90 | 100 | 100 | 100 | 100 | 100
CC[S+]([O-])c1c(C(F)F)ccc(C(=O)Nc2nnnn2C)c1Cl (stereo not drawn) [Example 1-53] | 100 | 100 | 100 | 100 | 100 | 100 | 100 | 100 | 90 | 100 | 100 | 100 | 100 | 100 | 100 | 100 | 100 | 100
CCS(=O)(=O)c1c(C(F)F)ccc(C(=O)Nc2nnnn2C)c1Cl [Example 1-54] | 100 | 100 | 100 | 100 | 90 | 100 | 100 | 100 | 90 | 100 | 100 | 100 | 100 | 100 | 100 | 100 | 100 | 100
CSc1c(C(F)F)ccc(C(=O)Nc2nnnn2C)c1Br [Example 1-61] | 100 | 100 | 100 | 100 | 90 | 100 | 100 | 100 | 90 | 100 | 100 | 100 | 90 | 100 | 90 | 100 | 100 | 100
Cn1nnnc1NC(=O)c1ccc(C(F)F)c([S+](C)[O-])c1Br (stereo not drawn) [Example 1-62] | 100 | 100 | 100 | 100 | 100 | 100 | 100 | 100 | 100 | 100 | 100 | 100 | 100 | 100 | 100 | 100 | 100 | 100
Cn1nnnc1NC(=O)c1ccc(C(F)F)c(S(C)(=O)=O)c1Br [Example 1-63] | 100 | 100 | 100 | 100 | 90 | 100 | 100 | 100 | 90 | 100 | 100 | 100 | 100 | 100 | 100 | 100 | 100 | 100
CCSc1c(C(F)F)ccc(C(=O)Nc2nnnn2C)c1Br [Example 1-64] | 100 | 100 | 100 | 100 | 90 | 100 | 100 | 100 | 90 | 100 | 100 | 100 | 90 | 100 | 100 | 100 | 100 | 100
CC[S+]([O-])c1c(C(F)F)ccc(C(=O)Nc2nnnn2C)c1Br (stereo not drawn) [Example 1-65] | 100 | 100 | 100 | 100 | 100 | 100 | 100 | 100 | 100 | 100 | 100 | 90 | 100 | 100 | 100 | 100 | 100 | 100
